Read-outs that look alike come from different tables or passages of the source.
Assays:
[1] = test system: medial meniscal tear in the right knee joint; assay type: in vivo, rat; settings: for swelling scores vs vehicle controls: days 24-29, 31, and 36-43
Protocol: Male Lewis rats underwent surgery to induce a medial meniscal tear in the right knee joint. Animals were dosed i.a. with FGF-18 (10 μg/joint) on days 21, 28, and 35 and dosed orally with diclofenac (either 1 mg/kg or 3 mg/kg) or vehicle on days 21-23, 28-30, and 35-37, then terminated on day 42 or day 63. Serum was collected and evaluated for alpha 2 macroglobulin (α2MG) levels on days −3, 21, 42, and 63. α2MG is an inflammation serum biomarker. The link between α2MG and inflammation has already been shown (Kuribayashi et al., 2013).

OA symptoms = settings: Chevalier et al., 2009, cited from earlier work
RA patients = settings: cited from earlier work
[2] = test system: Primary articular porcine chondrocytes; experiment: Porcine chondrocyte proliferation with or without IL1α challenge; assay type: cell-based, pig; settings: for restoration of rhFGF-18 proliferative activity in IL1α-challenged chondrocytes: anakinra 100 ng/mL with rhFGF-18 100 ng/mL, IL1α 10 ng/mL, direct and delayed treatments
Protocol: Porcine chondrocytes were isolated from the cartilage of a femoral head of a pig hip (pigs were approximately one year old). After dissection of the joints, the cartilage was harvested and digested 45 minutes with collagenase 0.25% (1/10 dilution of collagenase NBG4 2.5% in HAM's F12) at room temperature. The loosened cells were discarded and the cartilage further digested overnight with collagenase 0.1% (1/25 dilution of collagenase NBG4 2.5% in HAM's F12) at 37° C. to extract the chondrocytes. For this study, the chondrocytes were cultured in monolayer.
Primary articular porcine chondrocytes were stimulated or not with 10 ng/mL IL1α and were either treated immediately or 6 hours later with anakinra 100 ng/mL and/or trFGF-18 100 ng/mL. Each condition was performed in 4 or 6-plicates. As a control, cells were also cultured with anakinra alone, trFGF-18 alone or in the absence of any treatment (medium).
Pre-culture: After cell isolation porcine chondrocytes were inoculated at 20,000 cells/cm^2 and cultivated for one week in complete HAM's F12. Cells were then harvested with accutase, counted and used as described below.
For cells treated directly with anakinra: Chondrocytes were inoculated in a 24-well plate at 15,000 cells/well in 0.5 mL of complete HAM's F12. Then 0.25 mL of trFGF-18 400 ng/mL and/or 0.25 mL of anakinra 400 ng/mL were added to the cells. In the challenged samples, 10 μL of IL1α at 1,000 ng/mL were also added to the cells. trFGF-18, anakinra and IL1α were all diluted in complete HAM's F12. The final volume in the culture well was adjusted at 1 mL with complete HAM's F12. Final concentrations were 10 ng/mL IL1α, 100 ng/mL trFGF-18 and 100 ng/mL anakinra and the total culture time was eight days. A complete medium change was performed after four days. N=4.
For cells treated with anakinra and trFGF-18 6 hours after the IL1α challenge: Chondrocytes were inoculated in a 24-well plate at 15,000 cells/well in 1 mL of complete HAM's F12 containing or not containing IL1α 10 ng/mL. After 6 hours the medium was removed and replaced with 0.25 mL trFGF-18 400 ng/mL and/or 0.25 mL of anakinra 400 ng/mL. In the challenged samples, 0.25 mL of IL1α at 40 ng/mL was also added to the cells. trFGF-18, anakinra and IL1α were all diluted in complete HAM's F12. The final volume in the culture well was adjusted at 1 mL with complete HAM's F12. Final concentrations were 10 ng/mL IL1α, 100 ng/mL trFGF-18 and 100 ng/mL anakinra and the total culture time was eight days. A complete medium change was performed after four days. N=6.
After eight days of culture, cells were harvested with accutase and resulting cell suspensions were analyzed for cell concentration and cell viability with a ViCell™ cell analyzer (from Beckman Coulter). Statistical analysis consisted in a 1-way ANOVA followed by a Dunnett post-hoc analysis.

| Molecule | knee caliper measurements ([1]; diclofenac 1 mg/kg orally with FGF-18, any other time point) | knee caliper measurements ([1]; diclofenac 1 mg/kg orally with FGF-18, day 42) | swelling scores vs vehicle controls ([1]; diclofenac 1 mg/kg orally with FGF-18) | knee caliper measurements ([1]; diclofenac 3 mg/kg orally with FGF-18, any other time point) | knee caliper measurements ([1]; diclofenac 3 mg/kg orally with FGF-18, day 42) | swelling scores vs vehicle controls ([1]; diclofenac 3 mg/kg orally with FGF-18) | knee swelling (clinical observations and caliper measurements) ([1]; diclofenac 1 or 3 mg/kg with FGF-18) | improvements in OA symptoms compared with placebo (OA symptoms) | pain versus placebo in OA (OA symptoms; anakinra 150 mg) | joint damage in RA patients (RA patients; Bresnihan, 2002, St. Clair) | pain in RA patients (RA patients; Mertens et al., 2009) | restoration of rhFGF-18 proliferative activity in IL1α-challenged chondrocytes [2] | restoration of rhFGF-18 proliferative activity in IL1α-challenged chondrocytes ([2]; listed as Anakinra) | effect on chondrocyte proliferation ([2]; anakinra alone, 100 ng/mL) |
| --- | --- | --- | --- | --- | --- | --- | --- | --- | --- | --- | --- | --- | --- | --- |
| O=C(O)Cc1ccccc1Nc1c(Cl)cccc1Cl [diclofenac, 2-(2,6-dichloranilino) phenylacetic acid] | not significantly affected | significantly reduced | significantly reduced | not significantly affected | significantly reduced | significantly reduced | significantly reduced |  |  |  |  |  |  |  |
| anakinra: recombinant, nonglycosylated form of human interleukin-1 receptor antagonist (IL-1Ra), SEQ ID NO: 3 |  |  |  |  |  |  |  | not significantly associated | a tendency toward pain reduction | reduction in frequency and severity of joint damage | pain reduction | fully block | fully restore | no effect |

— US9724388B2, “FGF-18 compound dosing regimen” (MERCK PATENT GMBH, priority 2014, dated 2017)
